Data published in ChEMBL document CHEMBL1141382, “Studies leading to potent, dual inhibitors of Bcl-2 and Bcl-xL” (J Med Chem, 2007).

Tests used:
[1] = target: Apoptosis regulator Bcl-2 (Homo sapiens, UniProt P10415); test: Displacement of Bax-derived peptide from Bcl2 by fluorescence polarization assay
Bcl-2-like protein 1 [2] = target: T1, Bcl-2-like protein 1 (Homo sapiens, UniProt Q07817); test: Displacement of Bad-derived peptide from Bcl-xL by fluorescence polarization assay
Bcl-2-like protein 1 [3] = target: T1, Bcl-2-like protein 1; test: Displacement of Bad-derived peptide from Bcl-xL by FPA in presence of 10% human serum
FL5.12 = test: Reversal of cytokine withdrawal protection in IL3 dependent Bcl-xL overexpressing mouse FL5.12 cells in presence of 3% FBS; assay type: functional

Sequence of Apoptosis regulator Bcl-2 (P10415 whole entry): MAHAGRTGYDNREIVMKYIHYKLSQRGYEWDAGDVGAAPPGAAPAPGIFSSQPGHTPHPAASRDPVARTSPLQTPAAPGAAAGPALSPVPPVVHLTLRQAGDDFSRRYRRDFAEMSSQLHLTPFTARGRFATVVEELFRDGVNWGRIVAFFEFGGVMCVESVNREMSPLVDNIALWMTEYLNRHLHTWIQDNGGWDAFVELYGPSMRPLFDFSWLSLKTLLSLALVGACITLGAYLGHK
T1 sequence (Q07817 whole entry): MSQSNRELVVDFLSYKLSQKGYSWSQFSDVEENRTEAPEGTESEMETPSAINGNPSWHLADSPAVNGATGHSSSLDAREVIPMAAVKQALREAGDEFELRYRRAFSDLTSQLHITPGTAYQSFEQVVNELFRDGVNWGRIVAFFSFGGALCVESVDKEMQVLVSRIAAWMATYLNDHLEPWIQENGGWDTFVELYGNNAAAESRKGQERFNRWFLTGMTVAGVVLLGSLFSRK

Structure (SMILES)	Ki [1] [nM]	Ki (Bcl-2-like protein 1 [2]) [nM]	IC50 (Bcl-2-like protein 1 [3]) [nM]	EC50 (FL5.12) [nM]
CN(C)CC[C@H](CSc1ccccc1)Nc1ccc(S(=O)(=O)NC(=O)c2ccc(N3CCC(=Cc4ccccc4C#N)CC3)cc2)cc1[N+](=O)[O-]	13	< 0.5	520	
CN(C)CC[C@H](CSc1ccccc1)Nc1ccc(S(=O)(=O)NC(=O)c2ccc(N3CCN(Cc4ccccc4-c4ccccc4)CC3)cc2)cc1[N+](=O)[O-]	< 1	< 0.5	< 60	1200
Cc1ccccc1CN1CCN(c2ccc(C(=O)NS(=O)(=O)c3ccc(N[C@H](CCN(C)C)CSc4ccccc4)c([N+](=O)[O-])c3)cc2)CC1	4.5	3	140	
COc1ccc(-c2ccccc2CN2CCN(c3ccc(C(=O)NS(=O)(=O)c4ccc(N[C@H](CCN(C)C)CSc5ccccc5)c([N+](=O)[O-])c4)cc3)CC2)cc1	< 1	< 0.5	< 60	700
COC1(Cc2ccc(-c3ccccc3)cc2)CCN(c2ccc(C(=O)NS(=O)(=O)c3ccc(N[C@H](CCN(C)C)CSc4ccccc4)c([N+](=O)[O-])c3)cc2)CC1	< 1	0.9	160	
COC1(Cc2ccccc2C)CCN(c2ccc(C(=O)NS(=O)(=O)c3ccc(N[C@H](CCN(C)C)CSc4ccccc4)c([N+](=O)[O-])c3)cc2)CC1	1.4	< 0.5	71	
CSc1ccccc1CN1CCN(c2ccc(C(=O)NS(=O)(=O)c3ccc(N[C@H](CCN(C)C)CSc4ccccc4)c([N+](=O)[O-])c3)cc2)CC1	< 1	< 0.5	< 60	
COc1ccccc1CC1(OC)CCN(c2ccc(C(=O)NS(=O)(=O)c3ccc(N[C@H](CCN(C)C)CSc4ccccc4)c([N+](=O)[O-])c3)cc2)CC1	1.6	1.1	75	
COC1(Cc2ccccc2-c2ccccc2)CCN(c2ccc(C(=O)NS(=O)(=O)c3ccc(N[C@H](CCN(C)C)CSc4ccccc4)c([N+](=O)[O-])c3)cc2)CC1	< 1	< 0.5	< 60	
COC1(CC2CCCCC2)CCN(c2ccc(C(=O)NS(=O)(=O)c3ccc(N[C@H](CCN(C)C)CSc4ccccc4)c([N+](=O)[O-])c3)cc2)CC1	6.6	0.8	300	
COC1(Cc2cccc(Cl)c2)CCN(c2ccc(C(=O)NS(=O)(=O)c3ccc(N[C@H](CCN(C)C)CSc4ccccc4)c([N+](=O)[O-])c3)cc2)CC1	1.8	< 0.5	170	
COC1(Cc2ccccc2Cl)CCN(c2ccc(C(=O)NS(=O)(=O)c3ccc(N[C@H](CCN(C)C)CSc4ccccc4)c([N+](=O)[O-])c3)cc2)CC1	< 1	< 0.5	62	
COC1(Cc2ccccc2Br)CCN(c2ccc(C(=O)NS(=O)(=O)c3ccc(N[C@H](CCN(C)C)CSc4ccccc4)c([N+](=O)[O-])c3)cc2)CC1	1.5	< 0.5	< 60	
CCCCCC1(OC)CCN(c2ccc(C(=O)NS(=O)(=O)c3ccc(N[C@H](CCN(C)C)CSc4ccccc4)c([N+](=O)[O-])c3)cc2)CC1	20	1.3	312	
CN(C)CC[C@H](CSc1ccccc1)Nc1ccc(S(=O)(=O)NC(=O)c2ccc(N3CCN(Cc4ccccc4)CC3)cc2)cc1[N+](=O)[O-]	39.8	2.6	350	
COc1ccccc1C=C1CCN(c2ccc(C(=O)NS(=O)(=O)c3ccc(N[C@H](CCN(C)C)CSc4ccccc4)c([N+](=O)[O-])c3)cc2)CC1	2	0.6	760	
COc1ccccc1CN1CCN(c2ccc(C(=O)NS(=O)(=O)c3ccc(N[C@H](CCN(C)C)CSc4ccccc4)c([N+](=O)[O-])c3)cc2)CC1	3.2	< 0.5	80	
CN(C)CC[C@H](CSc1ccccc1)Nc1ccc(S(=O)(=O)NC(=O)c2ccc(N3CCN(Cc4ccccc4N4CCOCC4)CC3)cc2)cc1[N+](=O)[O-]	< 1	< 0.5	< 60	
CN(C)CC[C@H](CSc1ccccc1)Nc1ccc(S(=O)(=O)NC(=O)c2ccc(N3CCN(Cc4ccccc4-c4ccc(Cl)cc4)CC3)cc2)cc1[N+](=O)[O-] [ABT 737]				220
Cc1ccc(S(=O)(=O)N2CCN(c3ccc(C(=O)NS(=O)(=O)c4ccc(N[C@H](CCN(C)C)CSc5ccccc5)c([N+](=O)[O-])c4)cc3)CC2)cc1	6.1	4		
CN(C)CC[C@H](CSc1ccccc1)Nc1ccc(S(=O)(=O)NC(=O)c2ccc(N3CCN(Cc4ccccc4NC4CCCCC4)CC3)cc2)cc1[N+](=O)[O-]	3.5	0.6	370	
CN(C)CC[C@H](CSc1ccccc1)Nc1ccc(S(=O)(=O)NC(=O)c2ccc(N3CCC(=Cc4ccccn4)CC3)cc2)cc1[N+](=O)[O-]	46	3.6	700	
COC1(Cc2ccccc2)CCN(c2ccc(C(=O)NS(=O)(=O)c3ccc(N[C@H](CCN(C)C)CSc4ccccc4)c([N+](=O)[O-])c3)cc2)CC1	8.1	1.8	150	
CC1(C)CCN(c2ccc(C(=O)NS(=O)(=O)c3ccc(NC(C)(C)CSc4ccccc4)c([N+](=O)[O-])c3)cc2)CC1		0.8	360	
CN(C)CC[C@H](CSc1ccccc1)Nc1ccc(S(=O)(=O)NC(=O)c2ccc(N3CCN(C(=O)Nc4ccccc4)CC3)cc2)cc1[N+](=O)[O-]	300	2.5		
CN(C)CC[C@H](CSc1ccccc1)Nc1ccc(S(=O)(=O)NC(=O)c2ccc(N3CCN(Cc4ccccc4S(C)(=O)=O)CC3)cc2)cc1[N+](=O)[O-]	4.6	0.9	170	

Now from value to compound:

Ki [1] [nM]	Ki (Bcl-2-like protein 1 [2]) [nM]	IC50 (Bcl-2-like protein 1 [3]) [nM]	EC50 (FL5.12) [nM]	Structure (SMILES)
3.4	< 0.5	520		CN(C)CC[C@H](CSc1ccccc1)Nc1ccc(S(=O)(=O)NC(=O)c2ccc(N3CCC(=Cc4ccc(F)cc4)CC3)cc2)cc1[N+](=O)[O-]
9.4	1.4	1300		CN(C)CC[C@H](CSc1ccccc1)Nc1ccc(S(=O)(=O)NC(=O)c2ccc(N3CCC(=Cc4ccc(C(F)(F)F)cc4)CC3)cc2)cc1[N+](=O)[O-]
61.9	< 1			CN(C)CC[C@H](CSc1ccccc1)Nc1ccc(S(=O)(=O)NC(=O)c2ccc(N3CCN(C(=O)c4ccccc4)CC3)cc2)cc1[N+](=O)[O-]
2.1	< 0.5	510		CN(C)CC[C@H](CSc1ccccc1)Nc1ccc(S(=O)(=O)NC(=O)c2ccc(N3CCC(=Cc4ccc(Cl)cc4)CC3)cc2)cc1[N+](=O)[O-]
< 1	< 0.5	178	4500	COc1cccc(-c2ccccc2CN2CCN(c3ccc(C(=O)NS(=O)(=O)c4ccc(N[C@H](CCN(C)C)CSc5ccccc5)c([N+](=O)[O-])c4)cc3)CC2)c1
< 1	< 0.5	85		CN(C)CC[C@H](CSc1ccccc1)Nc1ccc(S(=O)(=O)NC(=O)c2ccc(N3CCN(Cc4ccccc4C(F)(F)F)CC3)cc2)cc1[N+](=O)[O-]
1	< 0.5	81		CN(C)CC[C@H](CSc1ccccc1)Nc1ccc(S(=O)(=O)NC(=O)c2ccc(N3CCN(Cc4ccccc4-c4cccnc4)CC3)cc2)cc1[N+](=O)[O-]
56	6.1	360		COC1(CC(C)C)CCN(c2ccc(C(=O)NS(=O)(=O)c3ccc(N[C@H](CCN(C)C)CSc4ccccc4)c([N+](=O)[O-])c3)cc2)CC1
35.2	4.4			CN(C)CC[C@H](CSc1ccccc1)Nc1ccc(S(=O)(=O)NC(=O)c2ccc(N3CCC4(CC3)CC(c3ccccc3)=NO4)cc2)cc1[N+](=O)[O-]
2.7	0.9	200		COC1(Cc2ccc(Cl)cc2)CCN(c2ccc(C(=O)NS(=O)(=O)c3ccc(N[C@H](CCN(C)C)CSc4ccccc4)c([N+](=O)[O-])c3)cc2)CC1
2.5	< 0.5	750		CN(C)CC[C@H](CSc1ccccc1)Nc1ccc(S(=O)(=O)NC(=O)c2ccc(N3CCC(=Cc4ccccc4F)CC3)cc2)cc1[N+](=O)[O-]
68	1.3	2800		CN(C)CC[C@H](CSc1ccccc1)Nc1ccc(S(=O)(=O)NC(=O)c2ccc(N3CCC(=Cc4cccnc4)CC3)cc2)cc1[N+](=O)[O-]
16	4.6	440		COC1(CC(C)(C)C)CCN(c2ccc(C(=O)NS(=O)(=O)c3ccc(N[C@H](CCN(C)C)CSc4ccccc4)c([N+](=O)[O-])c3)cc2)CC1
0.7	< 0.5	700		CN(C)CC[C@H](CSc1ccccc1)Nc1ccc(S(=O)(=O)NC(=O)c2ccc(N3CCC(=Cc4ccccc4Cl)CC3)cc2)cc1[N+](=O)[O-]
9.6	3.7			CC1OC2(CCN(c3ccc(C(=O)NS(=O)(=O)c4ccc(N[C@H](CCN(C)C)CSc5ccccc5)c([N+](=O)[O-])c4)cc3)CC2)N(Cc2ccccc2)C1=O (some centres not stated)
3.1	0.9	79		COC1(Cc2ccccc2F)CCN(c2ccc(C(=O)NS(=O)(=O)c3ccc(N[C@H](CCN(C)C)CSc4ccccc4)c([N+](=O)[O-])c3)cc2)CC1
2	< 0.5	300		CN(C)CC[C@H](CSc1ccccc1)Nc1ccc(S(=O)(=O)NC(=O)c2ccc(N3CCC(=Cc4ccccc4C(F)(F)F)CC3)cc2)cc1[N+](=O)[O-]
6.5	1.7			CN(C)CC[C@H](CSc1ccccc1)Nc1ccc(S(=O)(=O)NC(=O)c2ccc(N3CCC4(CC3)CC(Cc3ccccc3)=NO4)cc2)cc1[N+](=O)[O-]
< 1	< 0.5	83		CN(C)CC[C@H](CSc1ccccc1)Nc1ccc(S(=O)(=O)NC(=O)c2ccc(N3CCC(=Cc4ccccc4-c4ccccc4)CC3)cc2)cc1[N+](=O)[O-]
< 1	< 0.5	61		CN(C)CC[C@H](CSc1ccccc1)Nc1ccc(S(=O)(=O)NC(=O)c2ccc(N3CCN(Cc4ccccc4C4CCCCC4)CC3)cc2)cc1[N+](=O)[O-]
